Experimental data as given in PMC9866191, “Novel 9-Benzylaminoacridine Derivatives as Dual Inhibitors of Phosphodiesterase 5 and Topoisomerase II for the Treatment of Colon Cancer” (Molecules, 2023).

Key:
Experiment in all cases: NCI-60 one-dose screen
Type in all cases: cell-based
SK-MEL-2 = details: Homo sapiens; SK-MEL-2, Melanoma panel; single dose 10^−5 M; read-out: Growth inhibition %
EKVX = details: Homo sapiens, Non-small cell lung panel, single dose 10^−5 M, read-out: Growth inhibition %
M14 = details: Homo sapiens; M14, Melanoma panel; single dose 10^−5 M; read-out: Growth inhibition %
NCI/ADR-RES = details: Homo sapiens, Ovarian Cancer panel, single dose 10^−5 M, read-out: Growth inhibition %
T-47D = details: Homo sapiens, T47D, Breast Cancer panel, single dose 10^−5 M, read-out: Growth inhibition %
COLO 205 = details: Homo sapiens; COLO 205, Colon Cancer panel; single dose 10^−5 M; read-out: Growth inhibition %
HS 578T = details: Homo sapiens, Breast Cancer panel, single dose 10^−5 M, read-out: Growth inhibition %
UACC-62 = details: Homo sapiens; UACC-62, Melanoma panel; single dose 10^−5 M; read-out: Growth inhibition %
SN12C = details: Homo sapiens, Renal Cancer panel, single dose 10^−5 M, read-out: Growth inhibition %
HOP-92 = details: Homo sapiens; HOP-92, Non-small cell lung panel; single dose 10^−5 M; read-out: Growth inhibition %
A549/ATCC = details: Homo sapiens, Non-small cell lung panel, single dose 10^−5 M, read-out: Growth inhibition %
NCI-H322M = details: Homo sapiens, Non-small cell lung panel, single dose 10^−5 M, read-out: Growth inhibition %
SF-295 = details: Homo sapiens; SF-295, CNS Cancer panel; single dose 10^−5 M; read-out: Growth inhibition %
HL-60(TB) = details: Homo sapiens, Leukemia panel, single dose 10^−5 M, read-out: Growth inhibition %
ACHN = details: Homo sapiens, Renal Cancer panel, single dose 10^−5 M, read-out: Growth inhibition %
U251 = details: Homo sapiens, U-251; U251, CNS Cancer panel; single dose 10^−5 M; read-out: Growth inhibition %
NCI-H23 = details: Homo sapiens; NCI-H23, Non-small cell lung panel; single dose 10^−5 M; read-out: Growth inhibition %
SNB-75 = details: Homo sapiens; SNB-75, CNS Cancer panel; single dose 10^−5 M; read-out: Growth inhibition %
CAKI-1 = details: Homo sapiens; CAKI-1, Renal Cancer panel; single dose 10^−5 M; read-out: Growth inhibition %
OVCAR-4 = details: Homo sapiens; OVCAR-4, Ovarian Cancer panel; single dose 10^−5 M; read-out: Growth inhibition %
MCF7 = details: Homo sapiens; MCF7, Breast Cancer panel; single dose 10^−5 M; read-out: Growth inhibition %
UACC-257 = details: Homo sapiens; UACC-257, Melanoma panel; single dose 10^−5 M; read-out: Growth inhibition %
SW-620 = details: Homo sapiens; SW-620, Colon Cancer panel; single dose 10^−5 M; read-out: Growth inhibition %
HCT-116 = details: Homo sapiens, read-out: Growth inhibition %
PC-3 = details: Homo sapiens; PC-3, Prostate Cancer panel; single dose 10^−5 M; read-out: Growth inhibition %
BT-549 = details: Homo sapiens; BT-549, Breast Cancer panel; single dose 10^−5 M; read-out: Growth inhibition %
786-0 = details: Homo sapiens; 786-0, Renal Cancer panel; single dose 10^−5 M; read-out: Growth inhibition %
HT29 = details: Homo sapiens, HT-29; HT29, Colon Cancer panel; single dose 10^−5 M; read-out: Growth inhibition %
MALME-3M = details: Homo sapiens, Melanoma panel, single dose 10^−5 M, read-out: Growth inhibition %
SK-MEL-5 = details: Homo sapiens; SK-MEL-5, Melanoma panel; single dose 10^−5 M; read-out: Growth inhibition %
HOP-62 = details: Homo sapiens; HOP-62, Non-small cell lung panel; single dose 10^−5 M; read-out: Growth inhibition %
MDA-MB-468 = details: Homo sapiens; MDA-MB-468, Breast Cancer panel; single dose 10^−5 M; read-out: Growth inhibition %
NCI-H522 = details: Homo sapiens; NCI-H522, Non-small cell lung panel; single dose 10^−5 M; read-out: Growth inhibition %

Row | SMILES | inhibition at 10 µM (SK-MEL-2) [%] | inhibition at 10 µM (EKVX) [%] | inhibition at 10 µM (M14) [%] | inhibition at 10 µM (NCI/ADR-RES) [%] | inhibition at 10 µM (T-47D) [%] | inhibition at 10 µM (COLO 205) [%] | inhibition at 10 µM (HS 578T) [%] | inhibition at 10 µM (UACC-62) [%] | inhibition at 10 µM (SN12C) [%] | inhibition at 10 µM (HOP-92) [%] | inhibition at 10 µM (A549/ATCC) [%] | inhibition at 10 µM (NCI-H322M) [%] | inhibition at 10 µM (SF-295) [%] | inhibition at 10 µM (HL-60(TB)) [%] | inhibition at 10 µM (ACHN) [%] | inhibition at 10 µM (U251) [%] | inhibition at 10 µM (NCI-H23) [%] | inhibition at 10 µM (SNB-75) [%] | inhibition at 10 µM (CAKI-1) [%] | inhibition at 10 µM (OVCAR-4) [%] | also measured
1 | Fc1ccc(CNc2c3ccccc3nc3ccccc23)cc1 [Compound 10, Acridin-9-yl-(4-fluorobenzyl)-amine] | 56.2 | 64.4 | 65.7 | 70.3 | 68.9 | 92.5 | 60.5 | 49.8 | 74.3 | 82.8 | 76.3 | 61.5 | 72.4 | 78.8 | 87.5 | 74.1 | 68.3 | 57.9 | 74.5 | 66.8 | inhibition at 10 µM (MCF7): 92.9%; inhibition at 10 µM (UACC-257): 64%; inhibition at 10 µM (SW-620): 77.2%; inhibition at 10 µM (HCT-116): 87.5%; inhibition at 10 µM (PC-3): 73.1%; inhibition at 10 µM (BT-549): 19.3%; inhibition at 10 µM (786-0): 72.4%; inhibition at 10 µM (HT29): 83.9%; inhibition at 10 µM (MALME-3M): 74.3%; inhibition at 10 µM (SK-MEL-5): 57.5%; inhibition at 10 µM (HOP-62): 57%; inhibition at 10 µM (MDA-MB-468): 88.5%; inhibition at 10 µM (NCI-H522): 47.6%
2 | Clc1ccc(CNc2c3ccccc3nc3ccccc23)cc1 [Compound 13, Acridin-9-yl-(4-chlorobenzyl)-amine] | 27.6 | 37.4 | 46.7 | 63.4 | 56.6 | 91.4 | 46.2 | 29.3 | 60.9 | 74.5 | 60.7 | 45.9 | 40.4 | 55.3 | 77.2 | 53.8 | 47 | 31.6 | 58.6 | 66.9 | inhibition at 10 µM (MCF7): 84%; inhibition at 10 µM (UACC-257): 23.9%; inhibition at 10 µM (SW-620): 69%; inhibition at 10 µM (HCT-116): 84.3%; inhibition at 10 µM (PC-3): 61.3%; inhibition at 10 µM (BT-549): 29.1%; inhibition at 10 µM (786-0): 64.7%; inhibition at 10 µM (HT29): 85%; inhibition at 10 µM (MALME-3M): 60.4%; inhibition at 10 µM (SK-MEL-5): 38.8%; inhibition at 10 µM (HOP-62): 47%; inhibition at 10 µM (MDA-MB-468): 70.4%; inhibition at 10 µM (NCI-H522): 33.5%
3 | COc1ccc(CNc2c3ccccc3nc3ccccc23)c(OC)c1 [Compound 17, Acridin-9-yl-(2,4-dimethoxybenzyl)-amine] | 5.98 | 48.9 | 56.2 | 64.4 | 47.1 | 75.4 | 31.1 | 45.5 | 69 | 114 | 64.8 | 60 | 63.7 | 63.1 | 74.2 | 58.2 | 65.1 | 35.5 | 63.8 | 60.3 | inhibition at 10 µM (MCF7): 85.5%; inhibition at 10 µM (UACC-257): 25.4%; inhibition at 10 µM (SW-620): 79.3%; inhibition at 10 µM (HCT-116): 87.2%; inhibition at 10 µM (PC-3): 52.9%; inhibition at 10 µM (BT-549): 33.3%; inhibition at 10 µM (786-0): 60.9%; inhibition at 10 µM (HT29): 86.2%; inhibition at 10 µM (MALME-3M): 33%; inhibition at 10 µM (SK-MEL-5): 29.6%; inhibition at 10 µM (HOP-62): 52.8%; inhibition at 10 µM (MDA-MB-468): 95.2%; inhibition at 10 µM (NCI-H522): 59.4%
